Two molecules from patent publication US9603922B2, “Modulation of NKT cell activity with antigen-loaded CD1d molecules” (VACCINEX, INC., priority 2007, dated 2017) can be followed below.

For assay [1], the system named is H-2Kb/OVA specific CD8 T cells. Nature of the assay: Adjuvant effect on H-2Kb/OVA specific CD8 T cells upon ovalbumin immunization. The assay is classed as in vivo, mouse. The settings on record: for Frequency of Kb/OVA specific CTLs in the spleens, of total CD8: after OVA peptide boost, 5 days in vitro culture without further stimulation; for Frequency of specific T cells: after boost and in vitro re-stimulation with same stimuli; for H-2Kb/OVA257-264 tetramer CD8 double positive T cells after priming: priming with 200 μg ovalbumin plus adjuvant. As for the experimental part: FIG. 8: αGalCer loaded sCD1d acts as a strong adjuvant for the expansion of antigen-specific T cells upon active immunization. a kinetics of expansion of H-2K^b/OVA specific CTLs. Mice were primed with 200 μg ovalbumin either as such (i.v.) or with MONTANIDE™ adjuvant (3:7 ratio, s.c.) or with 1 μg αGalCer or 20 μg αGalCer/sCD1d (i.v.). Mice were bled every 5-7 days and PBMC were stained with H-2K^b/oVA tetramer+anti-CD8. Results were expressed as tetramer+ and CD8+ […] as a percentage of total CD8+ T cells. Mice were boosted with OVA peptide (20 μg) on day 22 employing the same adjuvants and route of injection as for primary immunization. b Ten days later, mice were sacrificed and splenocytes were cultured another five days either with no stimuli or with the same stimuli and adjuvants as for the in vivo boost. Frequency of OVA specific T cells was measured as in a. c The presence of mature DC in the same cultures as in b was analyzed by surface staining with anti CD11c and anti CD40 antibodies.
Together with active OVA immunization: An adjuvant effect has previously been attributed to free αGalCer and its potential use in vaccination has been proposed (Silk, J. D., et al. J Clin Invest 114:1800-1811 (2004)). […] In this context, the adjuvant effect on the expansion of antigen-specific T cells in the model of C57 BL/6 mice immunized with ovalbumin was investigated (Hermans, I. F., et al. J Immunol 171:5140-5147 (2003)). […] Furthermore, after boosting these same mice with OVA peptide in the same adjuvants in vivo and then 5 days in vitro culture without further stimulation, the frequency of K^b/OVA specific CTLs in the spleens reached up to 45% of total CD8 in mice that received a boost of OVA peptide with αGalCer/sCD1d, whereas the frequency was 12% in mice boosted with peptide and αGalCer alone (FIG. 8b). A further increase could be obtained by in vitro re-stimulation with the same respective stimuli and the frequency of specific T cells reached close to 70% in both αGalCer and αGalCer/sCD1d-treated mice (FIG. 8b).

The next assay has as its system liver iNKT cells. Nature of the assay: InvTCR downmodulation: disappearance of liver iNKT cells after single i.p. injection. The assay is classed as in vivo, mouse. The settings on record: 20 hours after single i.p. injection; αGalCer 5 μg, sCD1d 20 μg, fusion 40 μg. As for the experimental part: Frequency of iNKT cells was measured by flow cytometry using CD1d-Tetramer-EXTRAVIDIN®-PE and anti CD3 FITC.
Generation of CD1d tetramer. For this purpose, the soluble β2m-CD1d molecule was modified at the C-terminus by the addition of a cysteine after the stretch of histidine residues. After a mild reduction with 0.5 mM β-mercaptoethanol for 30 min at 30C and purification on a PD10 desalting column, the pure recombinant protein was biotinylated on the cystein residue by the chemical coupling of a biotin-maleimide linker (EZ-linked BM, Pierce) in 2M excess overnight at RT. The excess of linker was removed by gel filtration on a SUPERDEX™S200 column (Pharmacia Biotech). The biotinylated CD1d was loaded with αGalCer as described above and was tetramerized on EXTRAVIDIN®-PE (Sigma) and resulting complex was used at 5 μg/ml for NKT cell staining.
Isolation of liver, lung and spleen lymphocytes. Mouse livers and lungs were homogenized with 100 μm strainer and lymphocytes were isolated using a PERCOLL™ density gradient (Amersham Biosciences). After two washings, cells were either re-challenged or directly analyzed by fluorescence cytometry. Spleens were homogenized with a 70 μm strainer, debris were eliminated by spontaneous sedimentation and splenocytes were recovered by centrifugation. […]

Assay [2] deals with liver and spleen iNKT cells. Nature of the assay: Intracellular cytokine staining of liver and spleen NKT cells after repeated i.v. injections. More on the design: species or system mouse. The settings on record: after 5 to 6 i.v. injections every three days; ex vivo and in vitro rechallenge. On the procedure:
FIG. 2: a Sustained IFNγ production by liver and spleen iNKT cells after several injections of CD1d/anti-HER2 fusion. Liver and spleen lymphocytes were isolated 20 minutes after the sixth injection of either PBS (control, white bar), αGalCer 0.4 μg (grey bar), or αGalCer/CD1d-anti-HER2 fusion protein 40 μg (black bar) and cultured for 1 hour in presence of GOLGI PLUG™ reagent. NKT cells were then stained with anti NK1.1-PE and anti CD3-FITC antibodies, fixed and stained for intracellular IFNγ with anti IFNγ-APC. […] Liver lymphocytes were isolated after 5 injections i.v. of either PBS (Control), αGalCer, αGalCer/CD1d-anti-HER2 fusion protein (Fusion) or αGalCer/sCD1d (sCD1d) and stimulated in vitro for 6 hours in presence of GOLGI PLUG™ as indicated. […]
Isolation of liver, lung and spleen lymphocytes. […] After two washings, cells were either re-challenged or directly analyzed by fluorescence cytometry. […]
Sustained production of IFNγ after repeated i.v. injections: cytokine production was tested by IntraCellular Cytokine Staining (ICCS). […] After fixation and permeabilization with CYTOFIX/CYTOPERM™ (BD), intracellular IFNγ was detected with an APC-labeled anti-IFNγ monoclonal antibody. Cells were analyzed by flow cytometry on a FACS Calibur ([…]™ Software; BD). […]

Another assay relates to B16-HER2 cells. Nature of the assay: Precoating experiment, lung metastases of B16-HER2 cells. The class given is in vivo, mouse. The settings on record: cells pre-incubated with agent, injected i.v. into naïve mice.

Description for B16-HER2 cells: Quantification of lung metastasis. Metastatic nodule surface area was measured on 2560×1920 pixels photographs of the whole organs, taken on an Zeiss STEMI SV11 dissection microscope (Carl Zeiss, Jena, Germany) equipped with a PROGRES-C10plus Color Camera (Jenoptik, Jena, Germany). Each image was analyzed with the ImageJ program (rsb.info.nih.gov/ij/) using a k-means clustering algorithm (plugin available on ij-plugins.sourceforge.net). Images were segmented into 9 segments cluster tolerance 1×10−4, randomization seed: 48) and the appropriate segments were selected based on the color of the metastasis reaching the surface of the organ. The area of the sum of selected color segments was expressed as percentage of the area occupied by the lungs. Both sides of the lung were analyzed. This method takes into account both the number and the size of the tumor nodules.

With `CCCCCCCCCCCCCCCCCCCCCCCCCC(=O)N[C@@H](CO[C@H]1O[C@H](CO)[C@H](O)[C@H](O)[C@H]1O)[C@H](O)[C@H](O)CCCCCCCCCCCCCC` [αGalCer, α-galactosylceramide, reference compound], in assay [1], the “Frequency of Kb/OVA specific CTLs in the spleens, of total CD8” value amounted to 12%; the “Frequency of specific T cells” value is on record as around 70%; the “H-2Kb/OVA257-264 tetramer CD8 double positive T cells after priming” value was “no H-2K^b/OVA257-264 tetramer CD8 double positive T cells could be detected”. The “inv TCR downmodulation / disappearance of liver iNKT cells” value with liver iNKT cells is “inv TCR downmodulation occurred”. Moreover, the “IFNγ production by iNKT cells” value in assay [2] is “only active in naïve (PBS control) mice and has no more effect in αGalCer-treated mice”. Besides, the “Lung metastases of precoated B16-HER2 cells” value in the assay on B16-HER2 cells was “completely inhibited tumor development”.

B1: αGalCer/sCD1d: soluble monomeric mouse β2m-CD1d, His-tagged, loaded with αGalCer (protein)
chain: IQKTPQIQVYSRHPPENGKPNILNCYVTQFHPPHIEIQMLKNGKKIPKVEMSDMSFSKDWSFYILAHTEFTPTETDTYACRVKHASMAEPKTVYWDRDMGGGGSGGSGSGGGSEAQQKNYTFRCLQMSSFANRSWSRTDSVVWLGDLQTHRWSNDSATISFTKPWSQGKLSNQQWEKLQHMFQVYRVSFTRDIQELVKMMSPKEDYPIEIQLSAGCEMYPGNASESFLHVAFQGKYVVRFWGTSWQTVPGAPSWLDLPIKVLNADQGTSATVQMLLNDTCPLFVRGLLEAGKSDLEKQEKPVAWLSSVPSSADGHRQLVCHVSGFYPKPVWVMWMRGDQEQQGTHRGDFLPNADETWYLQATLDVEAGEEAGLACRVKHSSLGGQDIILYWSSGSGGHHHHHH
For the molecule B1, in assay [1], the “Frequency of Kb/OVA specific CTLs in the spleens, of total CD8” value is “up to 45%”; the “Frequency of specific T cells” value is around 70%; the “H-2Kb/OVA257-264 tetramer CD8 double positive T cells after priming” value was “could be detected”. For the same molecule, the “inv TCR downmodulation / disappearance of liver iNKT cells” value with liver iNKT cells is listed as “transient disappearance of liver iNKT cells”. Further, the “IFNγ production by iNKT cells” value in assay [2] is on record as “stimulate iNKT to produce IFNγ following repeated in vivo stimulation with the same material”.
